Converted amounts (≈) assume the structure as drawn.
Tests used:
[1] = Competitive inhibition of Escherichia coli chorismate mutase using varying levels of chorismic acid as substrate by Lineweaver-burk plot method
[2] = test system: Escherichia coli; experiment: Inhibition of Escherichia coli chorismate mutase assessed as ratio of IC50 to chorismate Km
[3] = Inhibition of Escherichia coli chorismate mutase
[4] = test system: Escherichia coli; experiment: Inhibition of Escherichia coli chorismate mutase assessed as ratio of I50 to chorismate Km
[5] = Inhibition of Mycobacterium tuberculosis chorismate mutase assessed as reduction in conversion of chorismate to prephenate using chorismate as substrate after 1 to 5 mins
[6] = Competitive inhibition of Bacillus subtilis chorismate mutase using varying levels of chorismic acid as substrate
[7] = test system: Mycobacterium tuberculosis; experiment: Antibacterial activity against Mycobacterium tuberculosis H37Rv after 7 days by microplate alamar blue assay; type: functional; settings: 168 h
[8] = Inhibition of Mycobacterium tuberculosis H37Rv chorismate mutase assessed as reduction in conversion of chorismate to prephenate using chorismic acid as substrate by spectrophotometric method
[9] = test system: Mycobacterium tuberculosis; experiment: Inhibition of Mycobacterium tuberculosis chorismate mutase expressed in Escherichia coli BL21 (DE3) assessed as reduction in conversion of chorismate to prephenate at 30 uM using chorismic acid as substrate after 5 mins by spectrophotometric method relative to control
[10] = Inhibition of Mycobacterium tuberculosis chorismate mutase assessed as reduction in conversion of chorismate to prephenate using chorismic acid as substrate after 5 mins by spectrophotometric method

Compound: O=C(O)c1cccc([N+](=O)[O-])c1-c1c(C(=O)O)cccc1[N+](=O)[O-]
- Ki [1]: 13 µM

Compound: O=C(O)C1CC2(C(=O)O)C=CC(O)C(C2)N1 (stereo in doubt; 23)
- Ratio [2]: 18

Compound: O=C(O)C1CC2CC(C(=O)O)(C=CC2O)C1 (stereo in doubt; 16) [listing 1 of 2 here]
- IC50 [3]: 430 µM

Compound: O=C1OC2CC3(C(=O)O)CC1N1C(C3)C21 (stereo not given)
- Ratio [2]: 42

Compound: O=C(O)C1CC2CC(C(=O)O)(C=CC2O)C1 (stereo in doubt; 16) [listing 2 of 2 here]
- Ratio [4]: 4.8

Compound: O=C(O)C1CC2(C(=O)O)C=CC3C(C2)N13 (stereo not given)
- Ratio [2]: > 20

Compound: O=C(O)C12CC3CC(C(=O)O)(C1)C2CC3O (stereo not given)
- Ratio [4]: 5.6
- IC50 [3]: 500 µM

Compound: Cc1ccc(C(C)C)cc1O [CARVACROL]
- IC50 [5]: 1.06 µM

Compound: O=C(O)C1CC2([N+](=O)[O-])C=CC(O)C(C2)O1 (stereo not given)
- Ki [6]: 0.3 µM

Compound: O=C1Nc2ccccc2C1=O [ISATIN]
- MIC [7]: 340 µM (≈ 50 µg/mL)

Compound: CCOC(=O)C1=C(C)NC(=O)N[C@H]1c1ccccc1C#CCCO
- IC50 [8]: 14.8 µM

Compound: O=C(O)C1CC2(C(=O)O)C=CC(O)C(C2)O1 (stereo not given)
- Ratio [2]: 0.007

Compound: CC(=O)c1c(C(C)(C)C)[nH]c2c(S(C)(=O)=O)cc(Cl)cc12
- inhibition [9]: 45%

Compound: O=C1Nc2ccccc2/C1=C/c1ccc([N+](=O)[O-])cc1
- MIC [7]: 23.5 µM (≈ 6.26 µg/mL)
- IC50 [10]: 1.01 µM

Compound: O=C(O)C1CC2CC(C(=O)O)(C=CC2O)C1 (stereo in doubt; 17) [listing 1 of 2 here]
- IC50 [3]: 500 µM

Compound: O=C(O)C1CC2(C(=O)O)C=CC(O)C(C2)N1 (stereo in doubt; 22)
- Ratio [2]: 1.2

Compound: O=C(O)C1CC2CC(C(=O)O)(C=CC2O)C1 (stereo in doubt; 17) [listing 2 of 2 here]
- Ratio [4]: 5.6

Compound: O=C1OC2CC3(C(=O)O)CC1NC(C3)C2O (stereo not given)
- Ratio [2]: > 50

From ChEMBL document CHEMBL3994661, “Mycobacterium tuberculosis chorismate mutase: A potential target for TB” (Bioorg Med Chem, 2017)
